# Experimental data from PubChem BioAssay AID1963846 (Molecular Pharmacology Branch, DTP, NCI, 2024).
# System: 454973-116-R2-J3-PDC complex spheroid viability
# Test: Anticancer human tumor 454973-116-R2-J3-PDC patient-derived pancreatic carcinoma cell line growth inhibition [POLQ]
# Conditions: for IC50: curve of first compound; for viability, T/C: stronger effect = lower value
# Summary of the method: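 PDC + HUVEC + MSC complex spheroids; POLQ inhibitors ± partner drugs; top conc. at/near clinical Cmax, else 10 microM (SN-38 1 microM), half-log dilutions; 37 degrees C, 5% CO2.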
# [1] = second compound 0.0316 µM, first compound 0.0316 µM
# [2] = second compound 0.0316 µM, first compound 0.1 µM
# [3] = second compound 0.0316 µM, first compound 0.316 µM
# [4] = second compound 0.0316 µM, first compound 1 µM
# [5] = second compound 0.0316 µM, first compound 3.16 µM
# [6] = second compound 0.0316 µM, first compound 10 µM
# [7] = second compound 0.1 µM, first compound 0.0316 µM
# [8] = second compound 0.1 µM, first compound 0.1 µM
# [9] = second compound 0.1 µM, first compound 0.316 µM
# [10] = second compound 0.1 µM, first compound 1 µM
# [11] = second compound 0.1 µM, first compound 3.16 µM
# [12] = second compound 0.1 µM, first compound 10 µM
# [13] = second compound 0.316 µM, first compound 0.0316 µM
# [14] = second compound 0.316 µM, first compound 0.1 µM
# [15] = second compound 0.316 µM, first compound 0.316 µM
# [16] = second compound 0.316 µM, first compound 1 µM
# [17] = second compound 0.316 µM, first compound 3.16 µM
# [18] = second compound 0.316 µM, first compound 10 µM
# [19] = second compound 1 µM, first compound 0.0316 µM
# [20] = second compound 1 µM, first compound 0.1 µM
# [21] = second compound 1 µM, first compound 0.316 µM
# [22] = second compound 1 µM, first compound 1 µM
# [23] = second compound 1 µM, first compound 3.16 µM
# [24] = second compound 1 µM, first compound 10 µM
# [25] = second compound 3.16 µM, first compound 0.0316 µM
# [26] = second compound 3.16 µM, first compound 0.1 µM
# [27] = second compound 3.16 µM, first compound 0.316 µM
# [28] = second compound 3.16 µM, first compound 1 µM
# [29] = second compound 3.16 µM, first compound 3.16 µM
# [30] = second compound 3.16 µM, first compound 10 µM
# [31] = second compound 10 µM, first compound 0.0316 µM
# [32] = second compound 10 µM, first compound 0.1 µM
# [33] = second compound 10 µM, first compound 0.316 µM
# [34] = second compound 10 µM, first compound 1 µM
# [35] = second compound 10 µM, first compound 3.16 µM
# [36] = second compound 10 µM, first compound 10 µM
# 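Further: spheroids exposed to drugs for seven days before measurement.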
# 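Wherever viability, T/C is given: percent viability relative to DMSO vehicle control wells taken as 100%.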
compound,measurement,setting,value
COc1cccc2c1C(=O)c1c(O)c3c(c(O)c1C2=O)CC(O)(C(=O)CO)CC3OC1CC(N)C(O)C(C)O1 (stereo not drawn) + COC1C(OC(N)=O)C(O)C(Oc2ccc3c(O)c(NC(=O)c4ccc(O)c(CC=C(C)C)c4)c(=O)oc3c2C)OC1(C)C,IC50,second compound 0.0316 µM,0.0562 µM
same,IC50,second compound 0.1 µM,0.0573 µM
same,IC50,second compound 0.316 µM,0.0648 µM
same,IC50,second compound 1 µM,0.0636 µM
same,IC50,second compound 3.16 µM,0.0664 µM
same,IC50,second compound 10 µM,0.0618 µM
same,"viability, T/C",[1],71%
same,"viability, T/C",[2],23.6%
same,"viability, T/C",[3],21.3%
same,"viability, T/C",[4],8.86%
same,"viability, T/C",[5],0.64%
same,"viability, T/C",[6],0.19%
same,"viability, T/C",[7],69.5%
same,"viability, T/C",[8],27.6%
same,"viability, T/C",[9],22.3%
same,"viability, T/C",[10],8.87%
same,"viability, T/C",[11],0.52%
same,"viability, T/C",[12],0.98%
same,"viability, T/C",[13],74.3%
same,"viability, T/C",[14],29.4%
same,"viability, T/C",[15],25.5%
same,"viability, T/C",[16],8.79%
same,"viability, T/C",[17],0.27%
same,"viability, T/C",[18],0.29%
same,"viability, T/C",[19],78.3%
same,"viability, T/C",[20],26%
same,"viability, T/C",[21],23.6%
same,"viability, T/C",[22],11.8%
same,"viability, T/C",[23],3.28%
same,"viability, T/C",[24],2.08%
same,"viability, T/C",[25],76.4%
same,"viability, T/C",[26],30.7%
same,"viability, T/C",[27],22.9%
same,"viability, T/C",[28],9.68%
same,"viability, T/C",[29],0.46%
same,"viability, T/C",[30],0.39%
same,"viability, T/C",[31],76%
same,"viability, T/C",[32],24.7%
same,"viability, T/C",[33],24.8%
same,"viability, T/C",[34],10%
same,"viability, T/C",[35],1.62%
same,"viability, T/C",[36],0.41%
CCc1cc2c(N3CCc4c(cc(Cn5ccnc5)cc4-c4cn(C)nc4C(F)(F)F)C3=O)cc(C)nc2c(OC)n1 + Cc1cccc(N(C)C(=O)C2C(O)CCN2c2nc(C)cc(C(F)(F)F)c2C#N)c1,IC50,second compound 0.0316 µM,> 10 µM
same,IC50,second compound 0.1 µM,> 10 µM
same,IC50,second compound 0.316 µM,> 10 µM
same,IC50,second compound 1 µM,> 10 µM
same,IC50,second compound 3.16 µM,> 10 µM
same,IC50,second compound 10 µM,> 10 µM
same,"viability, T/C",[1],94.7%
same,"viability, T/C",[2],84.6%
same,"viability, T/C",[3],87.3%
same,"viability, T/C",[4],75.5%
same,"viability, T/C",[5],76.5%
same,"viability, T/C",[6],56.9%
same,"viability, T/C",[7],92.7%
same,"viability, T/C",[8],99.2%
same,"viability, T/C",[9],80.7%
same,"viability, T/C",[10],80.1%
same,"viability, T/C",[11],74.6%
same,"viability, T/C",[12],60.8%
same,"viability, T/C",[13],93.6%
same,"viability, T/C",[14],84.5%
same,"viability, T/C",[15],87.7%
same,"viability, T/C",[16],76.9%
same,"viability, T/C",[17],76.3%
same,"viability, T/C",[18],61.6%
same,"viability, T/C",[19],100%
same,"viability, T/C",[20],94%
same,"viability, T/C",[21],78.4%
same,"viability, T/C",[22],73.6%
same,"viability, T/C",[23],70.4%
same,"viability, T/C",[24],58.6%
same,"viability, T/C",[25],104%
same,"viability, T/C",[26],89.3%
same,"viability, T/C",[27],84.1%
same,"viability, T/C",[28],74.7%
same,"viability, T/C",[29],74.4%
same,"viability, T/C",[30],63.8%
same,"viability, T/C",[31],88.5%
same,"viability, T/C",[32],90.2%
same,"viability, T/C",[33],74.9%
same,"viability, T/C",[34],71.5%
same,"viability, T/C",[35],64.9%
same,"viability, T/C",[36],53.2%
C=CCn1c(=O)c2cnc(Nc3ccc(N4CCN(C)CC4)cc3)nc2n1-c1cccc(C(C)(C)O)n1 + Nc1ccc(C#CCN(C(=O)Cc2ncc(C(F)(F)F)cc2C(F)(F)F)c2ccc(F)cc2)nn1,IC50,second compound 0.0316 µM,0.455 µM
same,IC50,second compound 0.1 µM,0.451 µM
same,IC50,second compound 0.316 µM,0.515 µM
same,IC50,second compound 1 µM,0.408 µM
same,IC50,second compound 3.16 µM,0.475 µM
same,IC50,second compound 10 µM,0.423 µM
same,"viability, T/C","second compound 0.0316 µM, first compound 0.00316 µM",108%
same,"viability, T/C","second compound 0.0316 µM, first compound 0.01 µM",100%
same,"viability, T/C",[1],104%
same,"viability, T/C",[2],99%
same,"viability, T/C",[3],68.7%
same,"viability, T/C",[4],9.62%
same,"viability, T/C","second compound 0.1 µM, first compound 0.00316 µM",106%
same,"viability, T/C","second compound 0.1 µM, first compound 0.01 µM",102%
same,"viability, T/C",[7],102%
same,"viability, T/C",[8],104%
same,"viability, T/C",[9],68.5%
same,"viability, T/C",[10],8.41%
same,"viability, T/C","second compound 0.316 µM, first compound 0.00316 µM",99.3%
same,"viability, T/C","second compound 0.316 µM, first compound 0.01 µM",109%
same,"viability, T/C",[13],106%
same,"viability, T/C",[14],107%
same,"viability, T/C",[15],79.3%
same,"viability, T/C",[16],10.2%
same,"viability, T/C","second compound 1 µM, first compound 0.00316 µM",105%
same,"viability, T/C","second compound 1 µM, first compound 0.01 µM",101%
same,"viability, T/C",[19],114%
same,"viability, T/C",[20],114%
same,"viability, T/C",[21],62.3%
same,"viability, T/C",[22],6.99%
same,"viability, T/C","second compound 3.16 µM, first compound 0.00316 µM",105%
same,"viability, T/C","second compound 3.16 µM, first compound 0.01 µM",114%
same,"viability, T/C",[25],115%
same,"viability, T/C",[26],114%
same,"viability, T/C",[27],72.7%
same,"viability, T/C",[28],8.66%
same,"viability, T/C","second compound 10 µM, first compound 0.00316 µM",116%
same,"viability, T/C","second compound 10 µM, first compound 0.01 µM",116%
same,"viability, T/C",[31],129%
same,"viability, T/C",[32],112%
same,"viability, T/C",[33],65%
same,"viability, T/C",[34],6.21%
Nc1ccn(C2OC(CO)C(O)C2(F)F)c(=O)n1 (stereo not drawn) + Cc1cccc(N(C)C(=O)C2C(O)CCN2c2nc(C)cc(C(F)(F)F)c2C#N)c1,IC50,second compound 0.0316 µM,< 0.0316 µM
same,IC50,second compound 0.1 µM,< 0.0316 µM
same,IC50,second compound 0.316 µM,< 0.0316 µM
same,IC50,second compound 1 µM,< 0.0316 µM
same,IC50,second compound 3.16 µM,< 0.0316 µM
same,IC50,second compound 10 µM,< 0.0316 µM
same,"viability, T/C",[1],13.4%
same,"viability, T/C",[2],13.4%
same,"viability, T/C",[3],14.2%
same,"viability, T/C",[4],12.5%
same,"viability, T/C",[5],12.3%
same,"viability, T/C",[6],12.7%
same,"viability, T/C",[7],16.2%
same,"viability, T/C",[8],11.9%
same,"viability, T/C",[9],13.7%
same,"viability, T/C",[10],15.5%
same,"viability, T/C",[11],13.5%
same,"viability, T/C",[12],13.9%
same,"viability, T/C",[13],15.1%
same,"viability, T/C",[14],13.8%
same,"viability, T/C",[15],14.2%
same,"viability, T/C",[16],14.2%
same,"viability, T/C",[17],13.6%
same,"viability, T/C",[18],12.8%
same,"viability, T/C",[19],14.1%
same,"viability, T/C",[20],11.7%
same,"viability, T/C",[21],13.9%
same,"viability, T/C",[22],14.6%
same,"viability, T/C",[23],12.5%
same,"viability, T/C",[24],11.8%
same,"viability, T/C",[25],16.9%
same,"viability, T/C",[26],13.5%
same,"viability, T/C",[27],14.8%
same,"viability, T/C",[28],13.8%
same,"viability, T/C",[29],12.5%
same,"viability, T/C",[30],14%
same,"viability, T/C",[31],13.6%
same,"viability, T/C",[32],14.2%
same,"viability, T/C",[33],17.1%
same,"viability, T/C",[34],14.2%
same,"viability, T/C",[35],13.8%
same,"viability, T/C",[36],11.9%
